From patent publication US8835428B2, “Diacylglycerol acyltransferase inhibitors” (Piramal Enterprises Limited, priority 2008, dated 2014) come the findings set out here.

Each structure is given as a SMILES string.

The first assay deals with T1, hDGAT1 (Homo sapiens, UniProt O75907).
T1 construct: host or cells: Sf9 insect cells (baculovirus); microsomal preparation
T1 sequence (O75907 1-488): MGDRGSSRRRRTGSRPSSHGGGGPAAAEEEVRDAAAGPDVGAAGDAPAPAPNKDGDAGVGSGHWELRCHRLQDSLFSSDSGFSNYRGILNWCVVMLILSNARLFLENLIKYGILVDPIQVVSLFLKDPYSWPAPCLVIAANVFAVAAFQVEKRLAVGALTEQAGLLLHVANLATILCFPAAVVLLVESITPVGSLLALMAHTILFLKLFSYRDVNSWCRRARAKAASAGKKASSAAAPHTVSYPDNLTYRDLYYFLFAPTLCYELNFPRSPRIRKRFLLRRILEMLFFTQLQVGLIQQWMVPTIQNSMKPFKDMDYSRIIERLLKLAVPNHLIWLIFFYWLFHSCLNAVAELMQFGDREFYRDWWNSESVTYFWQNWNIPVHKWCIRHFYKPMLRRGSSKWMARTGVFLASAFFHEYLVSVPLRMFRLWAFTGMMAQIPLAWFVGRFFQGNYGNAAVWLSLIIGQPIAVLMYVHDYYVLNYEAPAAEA
The assay is described as follows: In-vitro DGAT1 assay (hDGAT1 microsomes from Sf9 cells, 14C oleoyl CoA, triglyceride formation). Format: biochemical. Conditions: At 1 μM. The gist of the method:
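Human DGAT1 in baculovirus-infected Sf9 microsomes (2.5–10 μg), [14C]oleoyl-CoA with 409.5, 1228.5 or 1638 μM 1,2-dioleoyl-sn-glycerol, Tris-HCl pH 7.4 buffer with BSA. Compounds screened at 10, 5 and 1 μM in duplicate. Reaction 10 min at 37 °C; heptane-extracted [14C]triglyceride counted by scintillation.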
Consider `CC(C)[C@H](NC(=O)c1cc(-c2ccc(NC(=O)Nc3ccc4c(c3)CCC4)cc2)no1)C(=O)O` [Example 181, (S)-2-(3-(4-(3-(2,3-dihydro-1H-inden-5-yl)ureido)phenyl)isoxazole-5-carboxamido)-3-methylbutanoic acid], for which the inhibition (as a rule, the share of the control response that was lost under treatment) at 1 µM lay within 75 to 100%. The same measure, in the same setting: the same measure for `COC(=O)[C@H]1CCCN1C(=O)c1cc(-c2ccc(NC(=O)Nc3ccccc3F)cc2)no1` [Example 259, (R)-Methyl 1-(3-(4-(3-(2-fluorophenyl)ureido)phenyl)isoxazole-5-carbonyl)pyrrolidine-2-carboxylate]: 50 to 75%; for `COC(=O)C(NC(=O)c1cc(-c2ccc(OCc3ccccc3C(F)(F)F)cc2)no1)C(C)C` (stereo not drawn) [Example 329, Methyl 3-methyl-2-(3-(4-(2-(trifluoromethyl)benzyloxy)phenyl)isoxazole-5-carboxamido)butanoate]: 0 to 50%; for `Cc1ccc(F)c(NC(=O)Nc2ccc(-c3cc(C(=O)NC(C(=O)O)C(C)C)on3)cc2)c1` (stereo not drawn) [Example 156, 2-(3-(4-(3-(2-fluoro-5-methylphenyl)ureido)phenyl)isoxazole-5-carboxamido)-3-methylbutanoic acid]: 75 to 100%. On the same count and under the same terms, for `COC(=O)[C@H](NC(=O)c1cc(-c2ccc(NC(=O)Nc3ccccc3C#N)cc2)no1)C(C)C` [Example 216, (R)-methyl 2-(3-(4-(3-(2-cyanophenyl)ureido)phenyl)isoxazole-5-carboxamido)-3-methylbutanoate] the value was 0 to 50%. Still for that read-out and setting: the same measure for `CC(C)C(NC(=O)c1cc(-c2ccc(NC(=O)Nc3ccc(F)c(Cl)c3)cc2)no1)C(=O)O` (stereo not drawn) [Example 162, 2-(3-(4-(3-(3-chloro-4-fluorophenyl)ureido)phenyl)isoxazole-5-carboxamido)-3-methylbutanoic acid]: 75 to 100%.

In the case of `C=C(NC(=O)c1cc(-c2ccc(NC(=O)Nc3ccccc3F)cc2)no1)C(=O)O` [Example 302, 2-(3-(4-(3-(2-Fluorophenyl)ureido)phenyl)isoxazole-5-carboxamido) acrylic acid], the inhibition at 1 µM fell in the range of 50 to 75%.

The assay is the same for the next values; noted with them: At 5 μM.
As for `COC(=O)CCCNC(=O)c1cc(-c2ccc(NC(=O)Nc3ccc(C)cc3)cc2)no1` [Example 255, Methyl 4-(3-(4-(3-p-tolylureido)phenyl)isoxazole-5-carboxamido) butanoate], the “% inhibition of hDGAT1” value is “+ (>0% Inhibition ≦50)”. As to `COC(=O)[C@@H](NC(=O)c1cc(-c2ccc(NC(=S)Nc3ccc(C)cc3)cc2)no1)C(C)C` [Example 271, (S)-Methyl 3-methyl-2-(3-(4-(3-p-tolylthioureido)phenyl)isoxazole-5-carboxamido)butanoate], the inhibition at 5 µM fell in the range of 0 to 50%. The same measure, in the same setting: for `COC(=O)[C@@H](NC(=O)c1nc(-c2ccc(NC(=S)Nc3cccc(F)c3)cc2)no1)C(C)C` [Example 353, (S)-Methyl 2-(3-(4-(3-(3-fluorophenyl)thioureido)phenyl)-1,2,4-oxadiazole-5-carboxamido)-3-methylbutanoate] the value was 0 to 50%; for `O=C(Nc1ccc(-c2cc(C(=O)NC(Cc3ccccc3)C(=O)O)on2)cc1)Nc1ccccc1F` (stereo not drawn) [Example 242, 2-(3-(4-(3-(2-Fluorophenyl)ureido)phenyl)isoxazole-5-carboxamido)-3-phenylpropanoic acid], 50 to 75%.

The same assay, now with this note: At 10 μM.
The compound `COC(=O)[C@H](CC(C)C)NC(=O)c1cc(-c2ccc(Nc3nc4ccc(F)cc4s3)cc2)no1` [Example 46, (S)-2-({3-[4-(6-Fluoro-benzothiazol-2-ylamino)-phenyl]-isoxazole-5-carbonyl}-amino)-4-methyl-pentanoic acid methyl ester] yielded an inhibition at 10 µM of 0 to 50%. On the same count and under the same terms, the same measure for `CC(C)C(NC(=O)c1nc(-c2ccc(NC(=O)Nc3ccc(F)cc3F)cc2)no1)C(=O)O` (stereo not drawn) [Example 104, 2-(3-(4-(3-(2,4-difluorophenyl)ureido)phenyl)-1,2,4-oxadiazole-5-carboxamido)-3-methylbutanoic acid]: 75 to 100%; for `CC(C)C(NC(=O)c1cc(-c2ccc(NC(=O)Nc3ccccc3F)cc2)no1)C(=O)O` (stereo not drawn) [Example 106, 2-(3-(4-(3-(2-Fluorophenyl)ureido)phenyl)isoxazole-5-carboxamido)-3-methylbutanoic acid]: 75 to 100%; for `COC(=O)[C@H](CC(C)C)NC(=O)c1cc(-c2ccc(NC(=O)NC3CCCCC3)cc2)no1` [Example 82, (S)-2-({3-[4-(3-cyclohexyl-ureido)-phenyl]-isoxazole-5-carbonyl}-amino)-4-methyl-pentanoic acid methyl ester]: 0 to 50%.

As for `CC(C)[C@H](NC(=O)c1cc(-c2ccc(NC(=O)Nc3ccc(F)cc3)cc2)no1)C(=O)O` [Example 85, (S)-2-[(3-{4-[3-(4-Fluoro-phenyl)-ureido]-phenyl}-isoxazole-5-carbonyl)-amino]-3-methyl-butyric acid], the inhibition at 10 µM is 75 to 100%. In turn, `COC(=O)[C@@H]1CCCN1C(=O)c1cc(-c2cccc(Nc3nc4ccc(F)cc4s3)c2)no1` [Example 34, (S)-1-{3-[3-(6-Fluoro-benzothiazol-2-ylamino)-phenyl]-isoxazole-5-carbonyl}-pyrrolidine-2-carboxylic acid methyl ester] registered an inhibition at 10 µM of 0 to 50%. Same read-out and setting: for `O=C(O)C1(NC(=S)c2cc(-c3ccc(Nc4nc5ccc(F)cc5s4)cc3)no2)CCCC1` [Example 65, 1-({3-[4-(6-Fluoro-benzothiazol-2-ylamino)-phenyl]-isoxazole-5-carbothioyl}-amino)-cyclopentanecarboxylic acid] the value was 0 to 50%; for `COC(=O)C(C)(C)NC(=O)c1cc(-c2ccc(NC(=O)Nc3ccccc3)cc2)no1` [Example 121, Methyl 2-methyl-2-(3-(4-(3-phenylureido)phenyl)isoxazole-5-carboxamido)propanoate], 50 to 75%; for `CCC(C)[C@H](NC(=O)c1cc(-c2ccc(NC(=O)Nc3ccccc3)cc2)no1)C(=O)OC` (stereo partly drawn) [Example 78, (S)-3-Methyl-2-({3-[4-(3-phenyl-ureido)-phenyl]-isoxazole-5-carbonyl}-amino)-pentanoic acid methyl ester], 0 to 50%. On the same count and under the same terms, the same measure for `CC(C)(NC(=O)c1cc(-c2ccc(NC(=O)Nc3ccccc3)cc2)no1)C(=O)O` [Example 122, 2-methyl-2-(3-(4-(3-phenylureido)phenyl)isoxazole-5-carboxamido) propanoic acid]: 75 to 100%; for `COC(=O)[C@@H](NC(=S)c1c(-c2ccc(Nc3nc4ccc(F)cc4s3)cc2)noc1-c1ccccc1)C(C)C` [Example 72, (S)-2-({3-[4-(6-Fluoro-benzothiazol-2-ylamino)-phenyl]-5-phenyl-isoxazole-4-carbothioyl}-amino)-3-methyl-butyric acid methyl ester]: 0 to 50%. On the same count and under the same terms, for `Cc1cc(-c2cc(C(=O)NC(C(=O)O)C(C)C)on2)ccc1NC(=O)Nc1c(F)cccc1F` (stereo not drawn) [Example 98, 2-(3-(4-(3-(2,6-Difluorophenyl)ureido)-3-methylphenyl)isoxazole-5-carboxamido)-3-methylbutanoic acid] the value was 50 to 75%. For `COC(=O)C(CC(C)C)NC(=O)c1cc(-c2ccc(NC(=O)Nc3ccc(F)cc3F)cc2)no1` (stereo not drawn) [Example 113, Methyl 2-(3-(4-(3-(2,4-difluorophenyl)ureido)phenyl)isoxazole-5-carboxamido)-4-methylpentanoate], the inhibition at 10 µM lay in the range of 0 to 50%.
